Measured values from paper PMC2376372, “3-Bromophenyl 6-acetoxymethyl-2-oxo-2H-1-benzopyran-3-carboxylate inhibits cancer cell invasion in vitro and tumour growth in vivo” (British Journal of Cancer, 2003).

How the values were obtained:
HLE [1] = molecular target: T1, HLE (Homo sapiens, UniProt P08246); details: pH 8.0, 25°C; ref Pochet et al (2000); cited from earlier work
T1 construct: purchased Elastase Products Co
T1 sequence (P08246 30-267): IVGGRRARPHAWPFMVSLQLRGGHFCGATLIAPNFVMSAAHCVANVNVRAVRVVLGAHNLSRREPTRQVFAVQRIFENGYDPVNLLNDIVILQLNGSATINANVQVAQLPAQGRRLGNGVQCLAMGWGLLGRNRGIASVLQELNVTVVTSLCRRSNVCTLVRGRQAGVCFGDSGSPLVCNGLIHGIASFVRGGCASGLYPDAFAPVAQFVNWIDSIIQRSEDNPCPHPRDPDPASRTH

MMP-2 = molecular target: T2, MMP-2 (Homo sapiens, UniProt P08253); assay: Inhibition of purified MMP-2; format: biochemical; details: purified enzyme, pH 7.5, 25°C
T2 construct: purchased Calbiochem
T2 sequence (P08253 110-660): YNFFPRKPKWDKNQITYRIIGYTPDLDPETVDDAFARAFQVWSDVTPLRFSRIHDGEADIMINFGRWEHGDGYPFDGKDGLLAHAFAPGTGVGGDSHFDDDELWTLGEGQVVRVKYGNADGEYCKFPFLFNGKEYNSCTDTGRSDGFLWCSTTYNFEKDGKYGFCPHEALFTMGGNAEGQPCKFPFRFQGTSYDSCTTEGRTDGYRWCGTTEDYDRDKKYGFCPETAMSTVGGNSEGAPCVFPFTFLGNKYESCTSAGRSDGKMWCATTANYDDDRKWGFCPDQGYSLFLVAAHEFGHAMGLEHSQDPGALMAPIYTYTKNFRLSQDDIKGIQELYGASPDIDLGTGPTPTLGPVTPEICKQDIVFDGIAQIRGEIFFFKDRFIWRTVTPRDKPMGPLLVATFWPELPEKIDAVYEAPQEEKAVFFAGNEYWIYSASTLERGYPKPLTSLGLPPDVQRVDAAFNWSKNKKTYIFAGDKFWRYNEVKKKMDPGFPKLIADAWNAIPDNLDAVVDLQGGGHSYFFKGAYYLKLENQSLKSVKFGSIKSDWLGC
Procedure: (§1) Bovine α-CT and LMW-uPA (MW=33 000 Da) were purchased from Sigma, HMW-uPA (MW=54 000 Da) from Choay, trypsin (TRY) and THR from Boehringer-Indelheim (Germany), and MMP-2 and MMP-9 from Calbiochem. Human leucocyte elastase and PM were from Elastase Products Co. and Biogenic, respectively. Except for THR, HMW-uPA, MMP-2 and MMP-9, enzyme concentrations were determined by active-site titrations using the appropriate titrant ([Bender et al, 1966]; [Chase and Shaw, 1970]; [Powers and Gupton, 1977]). Several enzymes were assayed spectrophotometrically at 405 nm using the following p-nitroanilide substrates: succininyl-Ala2-Pro-Phe-p-nitroanilide (Suc-AAPF-p-NA), benzoyl-Arg-p-nitroanilide (Bz-R-p-NA) and methoxysuccinyl-Ala2-Pro-Val-p-nitroanilide (MeO-Suc-AAPV-p-NA) for α-CT, TRY and HLE, respectively (obtained from Sigma); or S-2238 ([…]), S-2444 (<Glu-Gly-Arg-p-nitroanilide) and S-2251 (H-D-Val-Leu-Lys-p-nitroanilide) for THR, HMW- and LMW-uPA, and PM, respectively (from Biogenic). Matrix metalloprotease-2 previously activated by treatment with APMA were assayed at 412 nm with the thiopeptide Ac-Pro-Leu-Gly-^Sleu-Leu-Gly-Oet in the presence of 5,5′-dithiobis(2-nitrobenzenic) acid (DTNB). […]

Plasmin = molecular target: T3, Plasmin (Homo sapiens, UniProt P00747); assay: Inactivation of plasmin (preincubation method); format: biochemical; details: pH 7.5, 25°C; preincubation method; NI=no inhibition
T3 construct: No; X′; α-CT; HLE; LMW-uPA; Plasmin; purchased Biogenic
T3 sequence (P00747 581-810 limits assumed, species assumed): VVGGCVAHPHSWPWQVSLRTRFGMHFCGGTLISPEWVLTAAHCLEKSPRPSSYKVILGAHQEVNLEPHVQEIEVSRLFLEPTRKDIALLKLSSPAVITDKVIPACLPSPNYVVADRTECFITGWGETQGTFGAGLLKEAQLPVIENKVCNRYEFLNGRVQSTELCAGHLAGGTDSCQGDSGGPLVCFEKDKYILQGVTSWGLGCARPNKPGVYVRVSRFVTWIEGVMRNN
T3 sequence (P00747 97-580 partner limits assumed, species assumed): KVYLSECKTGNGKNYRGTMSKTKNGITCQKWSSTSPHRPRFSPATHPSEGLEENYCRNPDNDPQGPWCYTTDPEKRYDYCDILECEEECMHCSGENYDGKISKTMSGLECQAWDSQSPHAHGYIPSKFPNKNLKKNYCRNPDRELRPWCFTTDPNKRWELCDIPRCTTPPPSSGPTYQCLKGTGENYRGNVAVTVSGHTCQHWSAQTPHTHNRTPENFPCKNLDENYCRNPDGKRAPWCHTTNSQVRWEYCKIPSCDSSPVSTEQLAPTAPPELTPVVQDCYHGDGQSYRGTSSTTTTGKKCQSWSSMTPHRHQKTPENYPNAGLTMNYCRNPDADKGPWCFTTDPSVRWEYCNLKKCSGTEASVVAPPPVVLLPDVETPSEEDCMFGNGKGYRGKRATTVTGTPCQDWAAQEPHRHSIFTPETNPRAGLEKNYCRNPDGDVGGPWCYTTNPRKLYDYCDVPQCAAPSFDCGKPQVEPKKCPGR
Procedure: (§2) Bovine α-CT and LMW-uPA (MW=33 000 Da) were purchased from Sigma, HMW-uPA (MW=54 000 Da) from Choay, trypsin (TRY) and THR from Boehringer-Indelheim (Germany), and MMP-2 and MMP-9 from Calbiochem. Human leucocyte elastase and PM were from Elastase Products Co. and Biogenic, respectively. Except for THR, HMW-uPA, MMP-2 and MMP-9, enzyme concentrations were determined by active-site titrations using the appropriate titrant ([Bender et al, 1966]; [Chase and Shaw, 1970]; [Powers and Gupton, 1977]). […]
(§3) The kinetic parameters for the inhibition were determined either by the preincubation method for LMW-uPA and PM (small aliquots of the reaction mixture were withdrawn at intervals of time and the remaining activity determined), or by the progress curve method (HLE) when the inhibition was too fast to be measured accurately using the preincubation method. […]
(§4) At low inhibitor concentrations, the ratio ki/KI was obtained as kobs/[I]0. […] In the progress curve method, the substrate competes with the inhibitor and the kinetic parameters are determined as previously described ([Doucet et al, 1999]). […]

MMP-9 = molecular target: T4, MMP-9 (Homo sapiens, UniProt P14780); assay: Inhibition of purified MMP-9; format: biochemical; details: purified enzyme, pH 7.5, 25°C
T4 construct: purchased Calbiochem
T4 sequence (P14780 94-707, species assumed): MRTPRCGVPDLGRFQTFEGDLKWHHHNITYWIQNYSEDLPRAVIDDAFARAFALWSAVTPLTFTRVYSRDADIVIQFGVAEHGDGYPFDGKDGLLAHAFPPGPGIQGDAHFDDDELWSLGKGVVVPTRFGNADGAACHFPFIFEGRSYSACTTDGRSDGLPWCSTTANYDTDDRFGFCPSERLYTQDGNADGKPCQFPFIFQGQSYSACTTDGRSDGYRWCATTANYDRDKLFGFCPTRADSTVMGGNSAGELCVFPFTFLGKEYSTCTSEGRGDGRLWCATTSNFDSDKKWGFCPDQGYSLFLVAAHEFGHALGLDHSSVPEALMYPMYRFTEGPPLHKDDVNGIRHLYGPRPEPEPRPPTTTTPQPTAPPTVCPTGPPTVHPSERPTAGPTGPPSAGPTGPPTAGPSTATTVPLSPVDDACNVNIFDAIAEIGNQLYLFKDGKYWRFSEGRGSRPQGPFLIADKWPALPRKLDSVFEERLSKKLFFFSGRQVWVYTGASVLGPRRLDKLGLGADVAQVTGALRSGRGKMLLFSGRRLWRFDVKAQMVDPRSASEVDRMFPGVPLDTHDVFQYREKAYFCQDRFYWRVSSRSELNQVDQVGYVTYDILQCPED
Procedure: as §1

HLE [2] = molecular target: T1, HLE; assay: Inactivation of human leucocyte elastase (progress curve method); format: biochemical; details: pH 8.0, 25°C, read-out: ki/KI or kobs/[I], HLE
Procedure: as §2, §3, §4

| SMILES | ki/KI or kobs/[I], HLE (HLE [1]) | inhibition of MMP-2 (MMP-2) | ki/KI or kobs/[I], Plasmin (Plasmin) | inhibition of MMP-9 (MMP-9) | kinact/KI (HLE [2]) [M⁻¹ s⁻¹] |
| --- | --- | --- | --- | --- | --- |
| CC(=O)OCc1ccc2oc(=O)c(C(=O)Oc3cccc(Cl)c3)cc2c1 [compound 4, 3-chlorophenyl 6-acetoxymethyl-2-oxo-2H-1-benzopyran-3-carboxylate] | 1440^a M^−1 s^−1 | not affected | not affected | not affected | – |
| CC(=O)OCc1ccc2oc(=O)c(C(=O)Oc3cccc(Br)c3)cc2c1 [compound 7, 3-bromophenyl 6-acetoxy-methyl-2-oxo-2H-1-benzopyran-3-carboxylate] | – | not affected | – | not affected | 2190 |
